{"source": "paper PMC10765884", "about": "“MC180295 is a highly potent and selective CDK9 inhibitor with preclinical in vitro and in vivo efficacy in cancer” (Clinical Epigenetics, 2024)", "key": {"SW48 cells": {"test_system": "SW48 cells", "assay": "SW48 colon cancer xenograft in NSG mice", "format": "in vivo", "details": "for survival / tumor growth / tumor size: SW48 s.c. in NSG mice, 20 mg/kg i.p. q.o.d.; for tumor growth / tumor size: vs vehicle", "method": "Fig. 3 Antitumor, survival, and metabolic effects of MC180295 and its enantiomers, MC180379 and MC180380. A Antitumor effects of MC180295, MC180379, and MC180380. NSG mice were inoculated (s.c.) with 2 × 10^6 SW48 cells. Eleven days later, when tumors were palpable, 20 mg/kg MC180295, MC180379, MC180380, or vehicle were administered (i.p.) every other day (q.o.d.). Tumor sizes were measured using a caliper. […] . C Antitumor effects of MC180379 and MC180380. NSG mice were inoculated (s.c.) with 1 × 10^6 HT29 cells. Twelve days later, when tumors were palpable, 20 mg/kg MC180379, MC180380, or vehicle were administered (i.p.) q.o.d. Tumor sizes were measured using a caliper. D HT29-xenografted mouse survival following (i.p.) q.o.d. dosing with 20 mg/kg MC180379 or MC180380. E NSG mice were inoculated (i.p.) with 5 × 10^5 MV4-11-luc cells. Four days later, when substantial tumor burden was evident by bioluminescence imaging, MC180379, MC180380, or vehicle were administered (i.p.) q.o.d at 20 mg/kg. Luciferase expression was quantified and calculated. F Mouse survival in days. […] G In vitro liver microsome stability and rat hepatocyte/Sprague–Dawley stability assay comparing MC180379 to MC180380. The dog breed was beagle and the mouse microsome strain was CD-1. All sexes (including the hepatocytes) were male except the human microsomes which were mixed gender. Significances were calculated using log-rank (Mantel-Cox) or Student’s t tests.\nFig. 4 Antitumor and survival-extending properties of a hypomethylating agent (DAC) combined with MC180295. A Antitumor effects of MC180295 and MC180295 + DAC. NSG mice were inoculated (s.c.) with 2 × 10^6 SW48 cells. Eleven days later, when tumors were palpable, 20 mg/kg MC180295 or vehicle were administered (i.p.) q.o.d. 0.5 mg/kg DAC was administered (i.p.) daily. Tumor sizes were measured using a caliper. B Mouse survival in days. 20 mg/kg MC180295 was administered (i.p.) q.o.d. 0.5 mg/kg DAC was administered (i.p.) daily. C NSG mice were inoculated (i.p.) with 5 × 10^5 MV4-11-luc cells. Four days later, when substantial tumor burden was evident by bioluminescence imaging, MC180295 (20 mg/kg) or vehicle were administered (i.p.) every other day. 0.5 mg/kg DAC was administered (i.p.) daily. Luciferase expression was quantified and calculated. […] E Antitumor effects of MC180380 and MC180380 + DAC. NSG mice were inoculated (s.c.) with 2 × 10^6 SW48 cells. Eleven days later, when tumors were palpable, 10 mg/kg MC180380, 20 mg/kg MC180380, or vehicle was administered (i.p.) q.o.d. 0.5 mg/kg DAC was administered (i.p.) daily. Mouse survival shown in days. Significances were calculated using log-rank (Mantel-Cox) or Student's t tests. Data are shown as means ± SEMs. ***p < 0.001\nFor the s.c. SW48 model, 2 × 10^6 cells were injected into the flanks of randomly assigned, gender-matched 8–10-week-old NSG mice."}, "[1]": {"test_system": "GFP silenced by a methylated CMV promoter in YB5 cells", "assay": "Live-cell assay for GFP reactivation in YB5 cells", "format": "cell-based", "details": "for lowest concentration reactivating GFP: after 24 h treatment, FACS", "method": "To identify novel epigenetic targets, we previously used a phenotype-based screen, the YB5 SW48 daughter cell line reporter system, to identify drugs that can reactivate GFP silenced by a methylated CMV promoter. […] […]. To better understand MC180295's antitumor effects, we tested its growth inhibition in a panel of cancer cell lines.\nThe live-cell assay for GFP reactivation in YB5 cells was done as previously described. Cells were treated with a single dose of drug 24 h after seeding at low density, and GFP fluorescence measured in a Millipore Guava flow cytometer (EMD, Millipore) instrument, or by imaging in a Cytation instrument (Agilent). Cancer cell lines (listed in Additional file 1: Fig. S1A) were obtained from ATCC or the Temple/Fox Chase Cellular Repository and cultured in the recommended medium. To measure growth inhibition, cells were seeded in 96-well plates at 40% confluency. Fresh medium was changed the next day and drugs were added directly. Drug-free fresh medium was changed on the fourth day. The cells were collected on day 5 by trypsin, suspended in medium, mixed with trypan blue (Thermo Fisher Scientific) (1:1 ratio), and counted using a LUNA II automated cell counter. Each sample was counted at least three times, and average numbers used for the analysis. Each treatment condition was performed in biological triplicates."}, "CDK9": {"biological_target": "T1, CDK9 (Homo sapiens, UniProt P50750)", "T1 construct": "purchased Reaction Biology Corp", "T1 sequence (P50750 whole entry)": "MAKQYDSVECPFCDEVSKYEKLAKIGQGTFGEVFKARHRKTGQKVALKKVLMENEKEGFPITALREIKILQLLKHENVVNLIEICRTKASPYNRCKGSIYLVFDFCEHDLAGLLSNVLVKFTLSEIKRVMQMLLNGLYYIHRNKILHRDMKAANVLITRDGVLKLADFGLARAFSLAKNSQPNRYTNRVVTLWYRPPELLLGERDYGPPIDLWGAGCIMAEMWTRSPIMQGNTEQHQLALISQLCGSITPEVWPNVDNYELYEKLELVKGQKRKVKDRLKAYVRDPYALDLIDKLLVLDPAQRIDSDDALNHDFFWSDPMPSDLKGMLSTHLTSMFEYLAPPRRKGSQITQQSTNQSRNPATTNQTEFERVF", "T1 sequence (O60563 whole entry partner)": "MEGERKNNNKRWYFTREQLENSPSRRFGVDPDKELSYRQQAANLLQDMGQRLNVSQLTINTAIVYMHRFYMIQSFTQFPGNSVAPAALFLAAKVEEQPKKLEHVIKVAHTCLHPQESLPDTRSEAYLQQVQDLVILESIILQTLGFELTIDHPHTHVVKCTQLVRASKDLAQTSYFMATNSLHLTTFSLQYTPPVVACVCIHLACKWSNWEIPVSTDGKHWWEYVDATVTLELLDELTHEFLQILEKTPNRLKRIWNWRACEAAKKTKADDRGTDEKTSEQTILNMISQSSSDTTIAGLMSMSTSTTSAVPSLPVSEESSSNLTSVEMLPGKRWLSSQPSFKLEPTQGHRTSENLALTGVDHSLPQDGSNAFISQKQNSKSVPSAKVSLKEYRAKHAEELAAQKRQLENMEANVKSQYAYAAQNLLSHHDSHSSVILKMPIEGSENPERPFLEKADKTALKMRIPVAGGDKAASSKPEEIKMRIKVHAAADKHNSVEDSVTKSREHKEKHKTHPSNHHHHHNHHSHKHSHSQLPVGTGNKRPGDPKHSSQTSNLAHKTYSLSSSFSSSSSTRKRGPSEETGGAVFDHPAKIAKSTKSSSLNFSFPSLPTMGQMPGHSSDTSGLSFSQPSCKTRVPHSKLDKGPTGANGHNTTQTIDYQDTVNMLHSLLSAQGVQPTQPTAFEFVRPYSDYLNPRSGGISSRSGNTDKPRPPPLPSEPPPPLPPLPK", "assay": "CDK9 inhibitory activity of MC180295 and its enantiomers", "format": "biochemical", "details": "Fig. S3E", "method": "CDK enzymatic assays were performed by Reaction Biology Corp. (Malvern, PA), using 10 µM ATP for determining MC180295 IC50 values for each CDK family member for which assays were available. Kinase enzymatic assays were also performed by Nanosyn (Santa Clara, CA), using microfluidic technology and MC180295 IC50 curves against 10 CDKs. Selectivity against CDK9 was confirmed for the enantiomers at Reaction Biology Corp. (Malvern, PA)."}}, "note": "“Also recorded” adds a separate entry of the source.", "data": [{"compound": "Nc1nc(N[C@H]2C[C@@H]3CC[C@H]2C3)sc1C(=O)c1ccccc1[N+](=O)[O-]", "note": "[MC180380]", "values": [{"measurement": "overall survival, dose comparison", "setting": "SW48 cells; SW48 in NSG mice, 10 or 20 mg/kg MC180380 i.p. q.o.d.", "result": "20 mg/kg led to better overall survival than 10 mg/kg"}, {"measurement": "survival", "setting": "SW48 cells; 20 mg/kg", "result": "no survival difference"}, {"measurement": "potency in inducing GFP (comparison of enantiomers)", "setting": "[1]; 24 h and 4 days after one-time treatment", "result": "more potent than MC18379 in inducing GFP; also recorded: epigenetically more potent than MC180379"}, {"measurement": "lowest concentration reactivating GFP", "setting": "[1]", "result": 100, "unit": "nM"}, {"measurement": "IC50", "setting": "CDK9", "result": 9, "unit": "nM"}]}, {"compound": "Nc1nc(N[C@@H]2C[C@H]3CC[C@@H]2C3)sc1C(=O)c1ccccc1[N+](=O)[O-]", "note": "[MC180379]", "values": [{"measurement": "survival", "setting": "SW48 cells", "result": "no survival difference"}, {"measurement": "lowest concentration reactivating GFP", "setting": "[1]", "result": 500, "unit": "nM"}, {"measurement": "IC50", "setting": "CDK9", "result": 11, "unit": "nM"}]}, {"compound": "Nc1nc(N[C@H]2C[C@@H]3CC[C@H]2C3)sc1C(=O)c1ccccc1[N+](=O)[O-]", "note": "(relative stereo) [MC180295]", "values": [{"measurement": "tumor growth / tumor size", "setting": "SW48 cells; 20 mg/kg", "result": "significantly reduce tumor size"}, {"measurement": "tumor growth / tumor size", "setting": "SW48 cells; listed as MC190295, 20 mg/kg", "result": "no statistical difference in tumor size"}, {"measurement": "survival", "setting": "SW48 cells; 20 mg/kg", "result": "prolong overall survival"}, {"measurement": "lowest concentration reactivating GFP", "setting": "[1]", "result": 100, "unit": "nM"}, {"measurement": "IC50", "setting": "CDK9", "result": 11, "unit": "nM"}]}]}
